The results in this text go back to ChEMBL document CHEMBL5579813, “2-(3-Indolyl)acetamides and their oxazoline analogues: Anticancer SAR study” (Bioorg Med Chem Lett, 2024).

Molecules are shown by their SMILES.

For data set [1], the system named is BE(2)-C. Kind of data set: Antiproliferative activity against human BE2C cells assessed as residual cell viability at 25 uM incubated for 96 hrs by MTT assay relative to control. Type of data set: functional. In general terms: Tetrazolium assays rely on reduction of a dye to a coloured formazan, in cell work by metabolically active cells.
The subject of data set [2] is BE(2)-C. Kind of data set: Antiproliferative activity against human BE2C cells assessed as reduction in cell growth incubated for 96 hrs by MTT assay. Type of data set: functional, cell-based.
For another data set, the system named is SW-620. Kind of data set: Antiproliferative activity against human SW620 cells assessed as reduction in cell growth incubated for 96 hrs by MTT assay. Type of data set: functional, cell-based. To be noted: SW-620, 96 h.
Data set [3] is described as follows: Antiproliferative activity against human Kelly cells assessed as reduction in cell growth incubated for 96 hrs by MTT assay. Type of data set: functional, cell-based.
The nature of data set [4]: Antiproliferative activity against human fibroblasts assessed as reduction in cell growth incubated for 96 hrs by MTT assay. Type of data set: toxicity, cell-based, Fibroblast.

With `NC(=O)C(c1ccccc1)c1c(-c2ccccc2)[nH]c2ccc(Cl)cc12` (stereo not drawn), the Residual cell viability in the data set on BE(2)-C [1] is given as 136%. Besides, the IC50 in the data set on BE(2)-C [2] amounted to 14 µM.

For the compound `CCc1ccc(C(C2=NC(C)(C)CO2)c2c(-c3ccc(C)cc3)[nH]c3ccccc23)cc1` (stereo not drawn), in the data set with BE(2)-C [1], the Residual cell viability came to 189%. With `Cc1ccc(C(C(N)=O)c2c(-c3ccc4ccccc4c3)[nH]c3ccccc23)cc1` (stereo not drawn), the Residual cell viability with BE(2)-C [1] is recorded as 14.5%. In addition, the IC50 was 0.37 µM in the data set with SW-620, 0.93 µM in data set [3] and 0.29 µM with BE(2)-C [2]. Besides, in data set [4], the IC50 at 96 h turned out to be 75.7 µM. On to `CCc1ccc(C(C2=NC(C)(C)CO2)c2c(-c3ccc(C)c(C)c3)[nH]c3ccccc23)cc1` (stereo not drawn), for which the Residual cell viability in the data set on BE(2)-C [1] is listed as 16.5%. Regarding `NC(=O)C(c1ccc(Cl)cc1)c1c(-c2ccc3ccccc3c2)[nH]c2ccccc12` (stereo not drawn), the Residual cell viability in the data set with BE(2)-C [1] is 13.9%. Further, in the data set with BE(2)-C [2], the IC50 amounted to 0.79 µM. The like results for `COc1ccc(C(C(N)=O)c2c(-c3ccc4ccccc4c3)[nH]c3ccccc23)cc1` (stereo not drawn) were, in that order, 13.7% and 0.47 µM. As for `Cc1ccc(-c2[nH]c3ccccc3c2C(C(N)=O)c2ccccc2)cc1` (stereo not drawn), the Residual cell viability in the data set on BE(2)-C [1] was 159%. For `COc1ccc(C(C2=NC(C)(C)CO2)c2c(-c3ccc(C)c(C)c3)[nH]c3ccccc23)cc1` (stereo not drawn), the Residual cell viability with BE(2)-C [1] turned out to be 135%. Take `NC(=O)C(c1cccc(Cl)c1)c1c(-c2ccccc2)[nH]c2ccccc12` (stereo not drawn): the Residual cell viability with BE(2)-C [1] stood at 14.1%. As for `CC1(C)COC(C(c2ccccc2)c2c(-c3ccccc3)[nH]c3ccccc23)=N1` (stereo not drawn), the Residual cell viability with BE(2)-C [1] was 13.3%.

For `COc1ccc(-c2[nH]c3ccccc3c2C(C(N)=O)c2ccccc2OC)cc1OC` (stereo not drawn), in the data set on BE(2)-C [1], the Residual cell viability was determined as 169%. On the same count and under the same terms, under `Cc1ccc(C(C(N)=O)c2c(-c3ccccc3)[nH]c3ccccc23)cc1` (stereo not drawn) stands 151%. As to `COc1ccc(-c2[nH]c3ccccc3c2C(C(N)=O)c2ccccc2OC)cc1` (stereo not drawn), the Residual cell viability in the data set with BE(2)-C [1] was determined as 178%. The IC50 in the data set on BE(2)-C [2] was found to be 7.34 µM. With `Cc1ccc(-c2[nH]c3ccccc3c2C(C2=NC(C)(C)CO2)c2ccccc2)cc1` (stereo not drawn), the Residual cell viability with BE(2)-C [1] amounted to 134%. Take `COc1ccc(C(C(N)=O)c2c(-c3ccc4ccccc4c3)[nH]c3ccccc23)cc1OC` (stereo not drawn): the Residual cell viability in the data set with BE(2)-C [1] came to 49.2%. For the same compound, the IC50 in the data set with SW-620 came out at 1.71 µM; in data set [3] it was 0.23 µM; in the data set on BE(2)-C [2], 0.25 µM. The IC50 at 96 h in data set [4] turned out to be 192 µM.

For the compound `COc1ccc(C(C2=NC(C)(C)CO2)c2c(-c3ccc(C)cc3)[nH]c3ccccc23)cc1` (stereo not drawn), the Residual cell viability with BE(2)-C [1] stood at 17.2%. Moreover, in the data set on BE(2)-C [2], the IC50 came to 9.4 µM. Take `COc1ccccc1C(C(N)=O)c1c(-c2ccccc2)[nH]c2ccccc12` (stereo not drawn): in the data set on BE(2)-C [1], the Residual cell viability stood at 147%.

Take `NC(=O)C(c1ccccc1)c1c(-c2ccccc2)[nH]c2ccccc12` (stereo not drawn): the Residual cell viability with BE(2)-C [1] was determined as 185%.

Regarding `COc1ccc(C(C(N)=O)c2c(-c3ccccc3)[nH]c3ccccc23)cc1` (stereo not drawn), the Residual cell viability in the data set on BE(2)-C [1] amounted to 129%.

Take `COc1ccc(C(C(N)=O)c2c(-c3ccccc3)[nH]c3ccccc23)cc1OC` (stereo not drawn): the Residual cell viability in the data set with BE(2)-C [1] is listed as 16.1%.

In the case of `CC1(C)COC(C(c2ccccc2F)c2c(-c3ccc4c(c3)CCCC4)[nH]c3ccccc23)=N1` (stereo not drawn), the Residual cell viability with BE(2)-C [1] worked out at 25.6%. Also, in the data set on BE(2)-C [2], the IC50 amounted to 88 µM. Regarding `CC1=C(/C=C/C(C)=C/C=C/C(C)=C/C(=O)O)C(C)(C)CCC1` [TRETINOIN], in the data set on BE(2)-C [2], the concentration for half-maximal inhibition (IC50) was found to be 6.7 µM.

As for `NC(=O)C(c1ccc(Cl)cc1)c1c(-c2ccccc2)[nH]c2ccccc12` (stereo not drawn), the Residual cell viability in the data set on BE(2)-C [1] was determined as 14.1%. The IC50 with BE(2)-C [2] is 0.99 µM. As for `COc1ccc(-c2[nH]c3ccccc3c2C(C(N)=O)c2ccccc2)cc1` (stereo not drawn), the Residual cell viability with BE(2)-C [1] was found to be 100%. As for `CC(C)c1ccc(C(C(N)=O)c2c(-c3ccccc3)[nH]c3ccccc23)cc1` (stereo not drawn), the Residual cell viability with BE(2)-C [1] is 88%. Also, the IC50 with BE(2)-C [2] amounted to 24 µM.

In the case of `CCc1ccc(C(C2=NC(C)(C)CO2)c2c(-c3ccc4c(c3)CCCC4)[nH]c3ccccc23)cc1` (stereo not drawn), the Residual cell viability with BE(2)-C [1] amounted to 33.3%. Consider `COc1ccccc1C(C(N)=O)c1c(-c2ccc3ccccc3c2)[nH]c2ccccc12` (stereo not drawn), for which the Residual cell viability in the data set on BE(2)-C [1] is on record as 42.4%. Further, the half-inhibitory concentration (IC50) in the data set with SW-620 came out at 1.41 µM; in data set [3], 1.33 µM; in the data set on BE(2)-C [2], 0.28 µM. In addition, in data set [4], the IC50 at 96 h was 155 µM. For the compound `CC1(C)COC(C(c2ccccc2Cl)c2c(-c3ccc4c(c3)CCCC4)[nH]c3ccccc23)=N1` (stereo not drawn), in the data set on BE(2)-C [1], the Residual cell viability is given as 34.3%. Also, in the data set with BE(2)-C [2], the IC50 came out at 6.1 µM. `NC(=O)C(c1cccc(Cl)c1)c1c(-c2ccc3ccccc3c2)[nH]c2ccccc12` (stereo not drawn): the Residual cell viability in the data set on BE(2)-C [1] was 142%. On to `NC(=O)C(c1ccccc1)c1c(-c2ccc3ccccc3c2)[nH]c2ccccc12` (stereo not drawn), for which, in the data set on BE(2)-C [1], the Residual cell viability turned out to be 19.2%. For the same compound, the IC50 with BE(2)-C [2] came out at 8.46 µM. As for `NC(=O)C(c1ccccc1Cl)c1c(-c2ccccc2)[nH]c2ccccc12` (stereo not drawn), the Residual cell viability in the data set on BE(2)-C [1] is 13.9%. The same measure, in the same setting: for `NC(=O)C(c1ccccc1)c1c(-c2ccc3ccccc3c2)[nH]c2ccc(Cl)cc12` (stereo not drawn) the value was 144%. Take `NC(=O)C(c1ccccc1Cl)c1c(-c2ccc3ccccc3c2)[nH]c2ccccc12` (stereo not drawn): in the data set with BE(2)-C [1], the Residual cell viability was determined as 132%. Besides, the IC50 with BE(2)-C [2] came to 0.96 µM. The matching figures for `COc1ccccc1C(C1=NC(C)(C)CO1)c1c(-c2ccc3c(c2)CCCC3)[nH]c2ccccc12` (stereo not drawn): 42% and 20 µM. On to `COc1ccc(-c2[nH]c3ccccc3c2C(C(N)=O)c2ccc(C)cc2)cc1` (stereo not drawn), for which the Residual cell viability in the data set on BE(2)-C [1] is reported as 87%. Also, in the data set with BE(2)-C [2], the IC50 turned out to be 4.65 µM.

Regarding `CC1(C)COC(C(c2ccc(Cl)cc2)c2c(-c3ccc4c(c3)CCCC4)[nH]c3ccccc23)=N1` (stereo not drawn), the Residual cell viability with BE(2)-C [1] was 145%. Moreover, in the data set with BE(2)-C [2], the IC50 amounted to 18.8 µM. With `CC1(C)COC(C(c2ccccc2)c2c(-c3ccc4ccccc4c3)[nH]c3ccccc23)=N1` (stereo not drawn), the Residual cell viability in the data set with BE(2)-C [1] worked out at 128%.

Usually IC50 stands for the concentration at which inhibition is half-maximal.
